In ChEMBL document CHEMBL1201862, “PubChem BioAssay data set” (2004):
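Cultured in 96-well plates, cells were exposed to test compound for 48 hours across five concentrations. Abbreviation: GI50, concentration required for 50% inhibition of growth.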 Active and inactive are the calls of the source. Rule as the data show it: active = GI50 up to about 1.1 µM and inactive = higher.

How the values were obtained:
Assay in all cases: NCI-60 cell line screen, 48 h
M19-MEL = tested on: M19-MEL
XF498 = tested on: XF498
RXF 631 = tested on: RXF 631
KM-20L2 = tested on: KM-20L2
DMS-273 = tested on: DMS-273
SNB-78 = tested on: SNB-78
DLD-1 = tested on: DLD-1
DMS-114 = tested on: DMS-114
HOP-18 = tested on: HOP-18

Row | Compound | GI50 (M19-MEL) | GI50 (XF498) | GI50 (RXF 631) | GI50 (KM-20L2) | GI50 (DMS-273) | GI50 (SNB-78) | GI50 (DLD-1) | GI50 (DMS-114) | GI50 (HOP-18)
1 | CC(C)=NNC(=S)NC12CC3CC(CC(C3)C1)C2 | > 100 µM (inactive) | > 100 µM (inactive) | > 100 µM (inactive) | > 100 µM (inactive) | > 100 µM (inactive) | > 100 µM (inactive) | – | – | –
2 | Cc1nc(-n2nc(-c3ccccc3)cc2-c2ccccc2)sc1C(/C=C\c1ccc([N+](=O)[O-])cc1)=N/NC(=S)NN | > 100 µM (inactive) | – | – | 50.6 µM (inactive) | – | 70 µM (inactive) | 19.2 µM (inactive) | 37.4 µM (inactive) | –
3 | CSc1cnc2ccccc2c1Sc1cn(C)c2ccccc2c1=O | 56 µM (inactive) | 21.9 µM (inactive) | 10 µM (inactive) | 38.9 µM (inactive) | 21.6 µM (inactive) | – | > 100 µM (inactive) | 14.9 µM (inactive) | 34 µM (inactive)
4 | Cn1c2c(c3ccccc31)CCN(CCN1CCN(c3ccccc3)CC1)C2=O | – | 22.2 µM (inactive) | > 100 µM (inactive) | > 100 µM (inactive) | > 100 µM (inactive) | – | > 100 µM (inactive) | > 100 µM (inactive) | 55 µM (inactive)
5 | CCCCCCCCCCCCC(=O)OC(c1cnco1)c1nc(C(O)CC(O)C(O)C(C)O)co1 (configuration not stated) | 0.78 µM (active) | 0.627 µM (active) | – | 1.23 µM (inactive) | 0.104 µM (active) | – | 0.946 µM (active) | 0.18 µM (active) | 3.48 µM (inactive)
6 | C=C1CC(C/C=C(\C)CC2CC(=C)C(=O)O2)OC1=O (configuration not stated) | > 100 µM (inactive) | > 100 µM (inactive) | > 100 µM (inactive) | > 100 µM (inactive) | > 100 µM (inactive) | > 100 µM (inactive) | > 100 µM (inactive) | > 100 µM (inactive) | > 100 µM (inactive)
7 | Cc1ccc(S(=O)OCC23CC4CC(CC(C4)C2)C3)cc1 (configuration not stated) | > 100 µM (inactive) | > 100 µM (inactive) | – | > 100 µM (inactive) | > 100 µM (inactive) | > 100 µM (inactive) | > 100 µM (inactive) | – | > 100 µM (inactive)
8 | c1ccc(SC2CCSc3ccccc3C2Sc2ccccc2)cc1 (configuration not stated) | > 10 µM (inactive) | > 100 µM (inactive) | – | > 100 µM (inactive) | > 100 µM (inactive) | > 100 µM (inactive) | > 100 µM (inactive) | > 10 µM (inactive) | –
9 | COC1=C(C)C(=O)C2=C(C1=O)C1C3CC4=C(C(=O)C(OC)=C(C)C4=O)C(CNC(=O)C(C)O)N3C(C#N)C(C2)N1C (configuration not stated) | < 0.01 µM (active) | < 0.01 µM (active) | – | < 0.01 µM (active) | < 0.01 µM (active) | < 0.01 µM (active) | < 0.01 µM (active) | < 0.01 µM (active) | < 0.01 µM (active)
10 | NS(=O)(=O)c1ccc(NC(=O)CC(=O)Nc2ccc(S(N)(=O)=O)cc2)cc1 | > 100 µM (inactive) | – | – | > 100 µM (inactive) | > 100 µM (inactive) | > 100 µM (inactive) | > 100 µM (inactive) | > 100 µM (inactive) | > 100 µM (inactive)
11 | CCN(CC)CC(=O)Nc1ccc2c(c1)C(=O)c1ccc(NC(=O)CN(CC)CC)cc1C2=O | > 100 µM (inactive) | – | – | 49.8 µM (inactive) | 18.7 µM (inactive) | 98.9 µM (inactive) | 26.2 µM (inactive) | 20.4 µM (inactive) | –
12 | O=C1C2c3[nH]c4ccccc4c3C3CCC(c4ccccc4)CC3C2C(=O)N1c1ccccc1 (configuration not stated) | > 100 µM (inactive) | > 100 µM (inactive) | – | – | > 100 µM (inactive) | 28.6 µM (inactive) | > 100 µM (inactive) | > 100 µM (inactive) | > 100 µM (inactive)
13 | COc1cc(CNc2nc3c(N)cc(C(F)(F)F)cc3nc2-c2ccccc2)cc(OC)c1OC | 35.4 µM (inactive) | 13.7 µM (inactive) | 44.3 µM (inactive) | 29.6 µM (inactive) | 37.8 µM (inactive) | > 10 µM (inactive) | 31.8 µM (inactive) | 12.3 µM (inactive) | > 10 µM (inactive)
14 | c1nc(N2CC2)c2cnn(C3CCCCO3)c2n1 (configuration not stated) | > 100 µM (inactive) | > 100 µM (inactive) | – | > 100 µM (inactive) | > 100 µM (inactive) | > 100 µM (inactive) | > 100 µM (inactive) | > 100 µM (inactive) | –
15 | CCN(CC)CCNC(=O)c1ccc(C)c(OCc2ccccc2)c1[N+](=O)[O-] | 18.1 µM (inactive) | 20.8 µM (inactive) | – | 27.2 µM (inactive) | 23.6 µM (inactive) | 61.9 µM (inactive) | 34.3 µM (inactive) | 26.5 µM (inactive) | > 100 µM (inactive)
16 | O=C(CCc1nnc(S)[nH]1)Nc1ccc(Cl)c(Cl)c1 | 43.6 µM (inactive) | > 100 µM (inactive) | 72.3 µM (inactive) | 6.12 µM (inactive) | 19.8 µM (inactive) | > 100 µM (inactive) | > 100 µM (inactive) | 23.5 µM (inactive) | > 100 µM (inactive)
17 | O=C1NC(=O)C(C(=O)C(=O)Nc2ccc(Br)cc2)C(=O)N1 | > 100 µM (inactive) | > 100 µM (inactive) | > 100 µM (inactive) | > 100 µM (inactive) | > 100 µM (inactive) | > 100 µM (inactive) | > 100 µM (inactive) | > 100 µM (inactive) | > 100 µM (inactive)
18 | CC[n+]1c(/C=C/c2ccc(N(CCCl)CCCl)cc2)ccc2cc(Br)ccc21 | 1.2 µM (inactive) | 0.275 µM (active) | 630 µM (inactive) | 3.13 µM (inactive) | 244 µM (inactive) | 0.76 µM (active) | 2.71 µM (inactive) | 0.662 µM (active) | 6.14 µM (inactive)
19 | C=CC[P@]1(=O)O[C@H](c2ccccc2)C(C)N1C(C)C (some centres not stated) | > 100 µM (inactive) | > 100 µM (inactive) | > 100 µM (inactive) | > 100 µM (inactive) | – | – | > 100 µM (inactive) | > 100 µM (inactive) | > 100 µM (inactive)
